From patent publication US7332501B2, “Indol-3-yl-carbonyl-spiro-piperidine derivatives as V1a receptor antagonists” (Hoffmann-La Roche Inc., priority 2005, dated 2008)

Biological target: T1, human V1a receptor (Homo sapiens, UniProt P37288)
T1 construct: expressed in transfected cells; host or cells: HEK293 cells, transiently transfected; cell membranes
Experiment: human V1a receptor binding (3H-Vasopressin SPA, HEK293 membranes)
Settings: displacement of 4 nM 3H-Vasopressin, membranes of HEK293 cells transiently transfected with human V1a receptor; Ki from IC50 by Cheng-Prussoff
Summary of the method: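 Ki derived by Cheng-Prusoff from IC50 curves normalised to specific binding. Serially diluted compounds (in 2% DMSO) competed with 3H-vasopressin (4 nM working solution) for 1 h at room temperature on SPA beads bearing membranes of transiently transfected HEK293 cells; unlabelled vasopressin defined non-specific counts.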

T1 sequence (P37288 whole entry): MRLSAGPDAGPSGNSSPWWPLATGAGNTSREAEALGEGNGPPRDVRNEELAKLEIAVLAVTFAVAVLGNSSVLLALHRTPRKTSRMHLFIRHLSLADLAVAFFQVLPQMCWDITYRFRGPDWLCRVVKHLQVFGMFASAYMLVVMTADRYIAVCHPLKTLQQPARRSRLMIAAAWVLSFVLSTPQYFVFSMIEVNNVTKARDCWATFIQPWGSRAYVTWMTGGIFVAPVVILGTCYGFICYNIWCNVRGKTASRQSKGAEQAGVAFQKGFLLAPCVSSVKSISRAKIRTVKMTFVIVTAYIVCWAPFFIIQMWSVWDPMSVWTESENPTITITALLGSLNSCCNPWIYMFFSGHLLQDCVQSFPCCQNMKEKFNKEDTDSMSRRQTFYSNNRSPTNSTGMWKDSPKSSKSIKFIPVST

SMILES	Ki [nM]
O=C1OC2(CCN(C(=O)c3cn(Cc4cc(F)cc(F)c4)c4ccccc34)CC2)c2ccccc21 [Example 202, 1′-{[1-(3,5-Difluorobenzyl)-1H-indol-3-yl]carbonyl}-3H-spiro[2-benzofuran-1,4′-piperidin]-3-one]	4.3
CCN(CC)C(=O)Cn1cc(C(=O)N2CCC3(CC2)OC(=O)c2ccccc23)c2ccccc21 [Example 203, N,N-Diethyl-2-{3-[(3-oxo-1′H,3H-spiro[2-benzofuran-1,4′-piperidin]-1′-yl)carbonyl]-1H-indol-1-yl}acetamide]	11.7
O=C(Cn1cc(C(=O)N2CCC3(CC2)OCc2ccccc23)c2ccc(Cl)cc21)N1CCCCC1 [Example 204, 1′-{[6-Chloro-1-(2-oxo-2-piperidin-1-ylethyl)-1H-indol-3-yl]carbonyl}-3H-spiro[2-benzofuran-1,4′-piperidine]]	1.1
O=C(Cn1cc(C(=O)N2CCC3(CC2)OCc2ccccc23)c2ccc(Cl)cc21)N1CCOCC1 [Example 205, 1′-{[6-Chloro-1-(2-morpholin-4-yl-2-oxoethyl)-1H-indol-3-yl]carbonyl}-3H-spiro[2-benzofuran-1,4′-piperidine]]	1
CN(C)C(=O)Cn1cc(C(=O)N2CCC3(CC2)OCc2ccccc23)c2ccc(Cl)cc21 [Example 206, 2-[6-Chloro-3-(1′H,3H-spiro[2-benzofuran-1,4′-piperidin]-1′-ylcarbonyl)-1H-indol-1-yl]-N,N-dimethylacetamide]	0.5
CCN(CC)C(=O)Cn1cc(C(=O)N2CCC3(CC2)OCc2ccccc23)c2ccc(Cl)cc21 [Example 207, 2-[6-Chloro-3-(1′H,3H-spiro[2-benzofuran-1,4′-piperidin]-1′-ylcarbonyl)-1H-indol-1-yl]-N,N-diethylacetamide]	1.1
O=C(c1cn(C(=O)N2CCCCC2)c2cc(Cl)ccc12)N1CCC2(CC1)OCc1ccccc12 [Example 208, 1′-{[6-Chloro-1-(piperidin-1-ylcarbonyl)-1H-indol-3-yl]carbonyl}-3H-spiro[2-benzofuran-1,4′-piperidine]]	2.6
CC(C)(C)OC(=O)Cn1cc(C(=O)N2CCC3(CC2)OCc2ccccc23)c2ccc(Cl)cc21 [Example 209, tert-Butyl[6-chloro-3-(1′H,3H-spiro[2-benzofuran-1,4′-piperidin]-1′-ylcarbonyl)-1H-indol-1-yl]acetate]	1
CN(C)CCn1cc(C(=O)N2CCC3(CC2)OCc2ccccc23)c2ccc(Cl)cc21 [Example 210, 2-[6-Chloro-3-(1′H,3H-spiro[2-benzofuran-1,4′-piperidin]-1′-ylcarbonyl)-1H-indol-1-yl]-N,N-dimethylethanamine]	1
O=C(Cn1cc(C(=O)N2CCC3(CC2)OCc2ccccc23)c2ccc(Cl)cc21)N1CCNCC1 [Example 211, 1′-{[6-Chloro-1-(2-oxo-2-piperazin-1-ylethyl)-1H-indol-3-yl]carbonyl}-3H-spiro[2-benzofuran-1,4′-piperidine]]	0.8
CN1CCN(C(=O)Cn2cc(C(=O)N3CCC4(CC3)OCc3ccccc34)c3ccc(Cl)cc32)CC1 [Example 212, 1′-({6-Chloro-1-[2-(4-methylpiperazin-1-yl)-2-oxoethyl]-1H-indol-3-yl}carbonyl)-3H-spiro[2-benzofuran-1,4′-piperidine]]	1.2
O=C(c1cn(Cc2cccc(F)c2)c2cc(Cl)ccc12)N1CCC2(CC1)OCc1ccccc12 [Example 220]	1
O=C(Cn1cc(C(=O)N2CCC3(CC2)OCc2ccccc23)c2ccc(Cl)cc21)c1ccccc1F [Example 224, 2-[6-Chloro-3-(1′H,3H-spiro[2-benzofuran-1,4′-piperidin]-1′-ylcarbonyl)-1H-indol-1-yl]-1-(2-fluorophenyl)ethanone]	1.3
O=C(c1cn(Cc2ccccn2)c2cc(Cl)ccc12)N1CCC2(CC1)OCc1ccccc12 [Example 231, 1′-{[6-Chloro-1-(pyridin-2-ylmethyl)-1H-indol-3-yl]carbonyl}-3H-spiro[2-benzofuran-1,4′-piperidine]]	1.6
O=C(c1cn(CC2CN(Cc3ccccc3)CCO2)c2cc(Cl)ccc12)N1CCC2(CC1)OCc1ccccc12 (stereo not drawn) [Example 232, 1′-({1-[(4-Benzylmorpholin-2-yl)methyl]-6-chloro-1H-indol-3-yl}carbonyl)-3H-spiro[2-benzofuran-1,4′-piperidine]]	5
Cc1cc(Cn2cc(C(=O)N3CCC4(CC3)OCc3ccccc34)c3ccc(Cl)cc32)no1 [Example 236, 1′-({6-Chloro-1-[(5-methylisoxazol-3-yl)methyl]-1H-indol-3-yl}carbonyl)-3H-spiro[2-benzofuran-1,4′-piperidine]]	1.7
Cn1cncc1Cn1cc(C(=O)N2CCC3(CC2)OCc2ccccc23)c2ccc(Cl)cc21 [Example 238]	1.9
Cc1cc(Cn2cc(C(=O)N3CCC4(CC3)OCc3ccccc34)c3ccc(Cl)cc32)nn1C [Example 240]	2
O=C(c1cn(CC2(F)COC2)c2cc(Cl)ccc12)N1CCC2(CC1)OCc1ccccc12 [Example 243, 1′-({6-Chloro-1-[(3-fluorooxetan-3-yl)methyl]-1H-indol-3-yl}carbonyl)-3H-spiro[2-benzofuran-1,4′-piperidine]]	1.4
COCC1(Cn2cc(C(=O)N3CCC4(CC3)OCc3ccccc34)c3ccc(Cl)cc32)CC1 [Example 244, 1′-[(6-Chloro-1-{[1-(methoxymethyl)cyclopropyl]methyl}-1H-indol-3-yl)carbonyl]-3H-spiro[2-benzofuran-1,4′-piperidine]]	2.6
N#CCC1(Cn2cc(C(=O)N3CCC4(CC3)OCc3ccccc34)c3ccc(Cl)cc32)CC1 [Example 245, (1-{[6-Chloro-3-(1′H,3H-spiro[2-benzofuran-1,4′-piperidin]-1′-ylcarbonyl) -1H-indol-1-yl]methyl}cyclopropyl)acetonitrile]	1.7
CC(C)(C)OC(=O)N1CCOC(Cn2cc(C(=O)N3CCC4(CC3)OCc3ccccc34)c3ccc(Cl)cc32)C1 (stereo not drawn) [Example 247, tert-Butyl 2-{[6-chloro-3-(1′H,3H-spiro[2-benzofuran-1,4′-piperidin]-1′-ylcarbonyl)-1H-indol-1-yl]methyl}morpholine-4-carboxylate]	2.3

More lines, now with the values ahead:

Ki [nM]	SMILES
3.3	Cc1cc2c(C(=O)N3CCC4(CC3)OCc3ccccc34)cn(CC(=O)N(C)C)c2cc1Cl [Example 213, 2-[6-Chloro-5-methyl-3-(1′H,3H-spiro[2-benzofuran-1,4′-piperidin]-1′-ylcarbonyl)-1H-indol-1-yl]-N,N-dimethylacetamide]
5.1	O=C(c1cn(C(=O)c2cccc(F)c2)c2cc(Cl)ccc12)N1CCC2(CC1)OCc1ccccc12 [Example 214]
8.6	O=C(c1cn(C(=O)c2ccccc2F)c2cc(Cl)ccc12)N1CCC2(CC1)OCc1ccccc12 [Example 215]
3.5	O=C(c1cn(C(=O)c2cc(F)cc(F)c2)c2cc(Cl)ccc12)N1CCC2(CC1)OCc1ccccc12 [Example 216]
5.8	O=C(c1cn(C(=O)c2cccc(F)c2F)c2cc(Cl)ccc12)N1CCC2(CC1)OCc1ccccc12 [Example 217]
25.1	O=C(c1cn(S(=O)(=O)c2cc(F)cc(F)c2)c2cc(Cl)ccc12)N1CCC2(CC1)OCc1ccccc12 [Example 218]
1.2	O=C(c1cn(Cc2cc(F)cc(F)c2)c2cc(Cl)ccc12)N1CCC2(CC1)OCc1ccccc12 [Example 219]
4	O=C(c1cn(-c2cc(F)cc(F)c2)c2cc(Cl)ccc12)N1CCC2(CC1)OCc1ccccc12 [Example 222]
2.5	O=C(c1cn(-c2cccc(F)c2)c2cc(Cl)ccc12)N1CCC2(CC1)OCc1ccccc12 [Example 223]
3.8	O=C(c1cn(-c2ccccn2)c2cc(Cl)ccc12)N1CCC2(CC1)OCc1ccccc12 [Example 227]
1.5	O=C(c1cn(Cc2ccncc2)c2cc(Cl)ccc12)N1CCC2(CC1)OCc1ccccc12 [Example 228]
1.6	O=C(Cn1cc(C(=O)N2CCC3(CC2)OCc2ccccc23)c2ccc(Cl)cc21)c1ccccn1 [Example 229, 2-[6-Chloro-3-(1′H,3H-spiro[2-benzofuran-1,4′-piperidin]-1′-ylcarbonyl)-1H-indol-1-yl]-1-pyridin-2-ylethanone]
1.7	O=C(c1cn(Cc2cccnc2)c2cc(Cl)ccc12)N1CCC2(CC1)OCc1ccccc12 [Example 230, 1′-{[6-Chloro-1-(pyridin-3-ylmethyl)-1H-indol-3-yl]carbonyl}-3H-spiro[2-benzofuran-1,4′-piperidine]]
1.8	O=C(c1cn(Cc2cnccn2)c2cc(Cl)ccc12)N1CCC2(CC1)OCc1ccccc12 [Example 234, 1′-{[6-Chloro-1-(pyrazin-2-ylmethyl)-1H-indol-3-yl]carbonyl}-3H-spiro[2-benzofuran-1,4′-piperidine]]
1.4	O=C(c1cn(Cc2cncnc2)c2cc(Cl)ccc12)N1CCC2(CC1)OCc1ccccc12 [Example 235]
4	Cc1nc(Cn2cc(C(=O)N3CCC4(CC3)OCc3ccccc34)c3ccc(Cl)cc32)c(C2CC2)o1 [Example 237]
2.3	Cc1cc(Cn2cc(C(=O)N3CCC4(CC3)OCc3ccccc34)c3ccc(Cl)cc32)on1 [Example 239, 1′-({6-Chloro-1-[(3-methylisoxazol-5-yl)methyl]-1H-indol-3-yl}carbonyl)-3H-spiro[2-benzofuran-1,4′-piperidine]]
1.5	Cc1noc(C)c1Cn1cc(C(=O)N2CCC3(CC2)OCc2ccccc23)c2ccc(Cl)cc21 [Example 241]
2.2	Cc1nc(Cn2cc(C(=O)N3CCC4(CC3)OCc3ccccc34)c3ccc(Cl)cc32)c(C)o1 [Example 242]
1.9	O=C(c1cn(CCC2CCOCC2)c2cc(Cl)ccc12)N1CCC2(CC1)OCc1ccccc12 [Example 246, 1′-({6-Chloro-1-[2-(tetrahydro-2H-pyran-4-yl)ethyl]-1H-indol-3-yl}carbonyl)-3H-spiro[2-benzofuran-1,4′-piperidine]]
